In PubChem BioAssay (NCI):
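Method: 48-hour compound exposure of cells in 96-well plates, five concentrations, linear interpolation of endpoints. TGI denotes the concentration required for complete inhibition of growth.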

Key:
Assay in all cases: NCI tumour cell line growth inhibition, 48 h
786-0 renal = tested on: 786-0 renal
A549 NSCLC = tested on: A549 NSCLC
ACHN renal = tested on: ACHN renal
BT-549 breast = tested on: BT-549 breast
CAKI-1 renal = tested on: CAKI-1 renal
CCRF-CEM leukemia = tested on: CCRF-CEM leukemia
COLO 205 colon = tested on: COLO 205 colon
DU-145 prostate = tested on: DU-145 prostate
EKVX NSCLC = tested on: EKVX NSCLC
HCC-2998 colon = tested on: HCC-2998 colon
HCT-116 colon = tested on: HCT-116 colon
HCT-15 colon = tested on: HCT-15 colon
HL-60(TB) leukemia = tested on: HL-60(TB) leukemia
HOP-62 NSCLC = tested on: HOP-62 NSCLC
HOP-92 NSCLC = tested on: HOP-92 NSCLC
HS 578T breast = tested on: HS 578T breast
HT29 colon = tested on: HT29 colon
IGROV1 ovarian = tested on: IGROV1 ovarian
K-562 leukemia = tested on: K-562 leukemia
KM12 colon = tested on: KM12 colon
LOX IMVI melanoma = tested on: LOX IMVI melanoma
M14 melanoma = tested on: M14 melanoma
MCF7 breast = tested on: MCF7 breast
MDA-MB-231 breast = tested on: MDA-MB-231 breast
MDA-MB-435 = tested on: MDA-MB-435
MDA-N = tested on: MDA-N
MOLT-4 leukemia = tested on: MOLT-4 leukemia
NCI-H460 lung = tested on: NCI-H460 lung
NCI/ADR-RES ovarian = tested on: NCI/ADR-RES ovarian
OVCAR-3 ovarian = tested on: OVCAR-3 ovarian
OVCAR-4 ovarian = tested on: OVCAR-4 ovarian
OVCAR-5 ovarian = tested on: OVCAR-5 ovarian
OVCAR-8 ovarian = tested on: OVCAR-8 ovarian
PC-3 prostate = tested on: PC-3 prostate
RPMI-8226 leukemia = tested on: RPMI-8226 leukemia
RXF 393 renal = tested on: RXF 393 renal
SF-268 CNS = tested on: SF-268 CNS
SF-295 CNS = tested on: SF-295 CNS
SF-539 CNS = tested on: SF-539 CNS
SK-MEL-2 melanoma = tested on: SK-MEL-2 melanoma
SK-MEL-28 melanoma = tested on: SK-MEL-28 melanoma
SK-MEL-5 melanoma = tested on: SK-MEL-5 melanoma
SK-OV-3 ovarian = tested on: SK-OV-3 ovarian
SN12C renal = tested on: SN12C renal
SNB-19 CNS = tested on: SNB-19 CNS
SNB-75 CNS = tested on: SNB-75 CNS
SR leukemia = tested on: SR leukemia
SW-620 colon = tested on: SW-620 colon
T-47D breast = tested on: T-47D breast
TK-10 renal = tested on: TK-10 renal
U251 CNS = tested on: U251 CNS
UACC-257 melanoma = tested on: UACC-257 melanoma
UACC-62 melanoma = tested on: UACC-62 melanoma
UO-31 renal = tested on: UO-31 renal
A498 renal = tested on: A498 renal
MALME-3M melanoma = tested on: MALME-3M melanoma
NCI-H23 lung = tested on: NCI-H23 lung
NCI-H522 lung = tested on: NCI-H522 lung

Cc1cc2nc(N3C(=O)/C(=C/c4ccc(N(C)C)cc4)N=C3c3ccccc3)sc2cc1C
TGI (786-0 renal): 49.9 µM | TGI (A549 NSCLC): > 100 µM | TGI (ACHN renal): 62.4 µM | TGI (BT-549 breast): > 100 µM | TGI (CAKI-1 renal): > 100 µM | TGI (CCRF-CEM leukemia): 34 µM | TGI (COLO 205 colon): 40.7 µM | TGI (DU-145 prostate): > 100 µM | TGI (EKVX NSCLC): > 100 µM | TGI (HCC-2998 colon): 37.6 µM | TGI (HCT-116 colon): 43 µM | TGI (HCT-15 colon): > 100 µM | TGI (HL-60(TB) leukemia): 46.2 µM | TGI (HOP-62 NSCLC): > 100 µM | TGI (HOP-92 NSCLC): 53 µM | TGI (HS 578T breast): > 100 µM | TGI (HT29 colon): 44.2 µM | TGI (IGROV1 ovarian): > 100 µM | TGI (K-562 leukemia): > 100 µM | TGI (KM12 colon): > 100 µM | TGI (LOX IMVI melanoma): > 100 µM | TGI (M14 melanoma): 73.1 µM | TGI (MCF7 breast): 21.3 µM | TGI (MDA-MB-231 breast): 96 µM | TGI (MDA-MB-435): 51 µM | TGI (MDA-N): 33.8 µM | TGI (MOLT-4 leukemia): 49.8 µM | TGI (NCI-H460 lung): > 100 µM | TGI (NCI/ADR-RES ovarian): > 100 µM | TGI (OVCAR-3 ovarian): > 100 µM | TGI (OVCAR-4 ovarian): > 100 µM | TGI (OVCAR-5 ovarian): 84.2 µM | TGI (OVCAR-8 ovarian): > 100 µM | TGI (PC-3 prostate): 43.5 µM | TGI (RPMI-8226 leukemia): > 100 µM | TGI (RXF 393 renal): 57.9 µM | TGI (SF-268 CNS): > 100 µM | TGI (SF-295 CNS): > 100 µM | TGI (SF-539 CNS): 53.4 µM | TGI (SK-MEL-2 melanoma): 65.3 µM | TGI (SK-MEL-28 melanoma): > 100 µM | TGI (SK-MEL-5 melanoma): 44.4 µM | TGI (SK-OV-3 ovarian): > 100 µM | TGI (SN12C renal): 57.8 µM | TGI (SNB-19 CNS): > 100 µM | TGI (SNB-75 CNS): 56.8 µM | TGI (SR leukemia): 41.3 µM | TGI (SW-620 colon): > 100 µM | TGI (T-47D breast): > 100 µM | TGI (TK-10 renal): > 100 µM | TGI (U251 CNS): > 100 µM | TGI (UACC-257 melanoma): > 100 µM | TGI (UACC-62 melanoma): > 100 µM | TGI (UO-31 renal): 87.4 µM

CC[C@H](C)[C@H](NC(=O)[C@@]1(O)[C@H](O)[C@]2(CC)C=CCN3CC[C@@]4(c5cc(Br)c(OC)cc5N(C)[C@@H]14)[C@@H]32)C(=O)OC
TGI (786-0 renal): > 100 µM | TGI (A498 renal): > 100 µM | TGI (A549 NSCLC): > 100 µM | TGI (ACHN renal): > 100 µM | TGI (BT-549 breast): > 100 µM | TGI (CAKI-1 renal): > 100 µM | TGI (CCRF-CEM leukemia): 67.3 µM | TGI (COLO 205 colon): 29.2 µM | TGI (DU-145 prostate): > 100 µM | TGI (EKVX NSCLC): > 100 µM | TGI (HCC-2998 colon): 87.7 µM | TGI (HCT-116 colon): > 100 µM | TGI (HCT-15 colon): > 100 µM | TGI (HL-60(TB) leukemia): 70.8 µM | TGI (HOP-62 NSCLC): > 100 µM | TGI (HS 578T breast): 77.1 µM | TGI (HT29 colon): 30.5 µM | TGI (IGROV1 ovarian): > 100 µM | TGI (K-562 leukemia): > 100 µM | TGI (KM12 colon): > 100 µM | TGI (LOX IMVI melanoma): 35.5 µM | TGI (M14 melanoma): 84.5 µM | TGI (MALME-3M melanoma): 83.7 µM | TGI (MCF7 breast): > 100 µM | TGI (MDA-MB-231 breast): 46.5 µM | TGI (MDA-MB-435): 71.3 µM | TGI (MDA-N): > 100 µM | TGI (MOLT-4 leukemia): > 100 µM | TGI (NCI-H23 lung): > 100 µM | TGI (NCI-H460 lung): > 100 µM | TGI (NCI-H522 lung): > 100 µM | TGI (NCI/ADR-RES ovarian): > 100 µM | TGI (OVCAR-3 ovarian): > 100 µM | TGI (OVCAR-4 ovarian): 50 µM | TGI (OVCAR-5 ovarian): > 100 µM | TGI (OVCAR-8 ovarian): > 100 µM | TGI (PC-3 prostate): > 100 µM | TGI (RPMI-8226 leukemia): 34.9 µM | TGI (RXF 393 renal): > 100 µM | TGI (SF-268 CNS): > 100 µM | TGI (SF-295 CNS): > 100 µM | TGI (SF-539 CNS): 91.3 µM | TGI (SK-MEL-2 melanoma): > 100 µM | TGI (SK-MEL-28 melanoma): 38.7 µM | TGI (SK-MEL-5 melanoma): 87.4 µM | TGI (SK-OV-3 ovarian): > 100 µM | TGI (SN12C renal): > 100 µM | TGI (SNB-19 CNS): > 100 µM | TGI (SR leukemia): > 100 µM | TGI (SW-620 colon): > 100 µM | TGI (T-47D breast): > 100 µM | TGI (TK-10 renal): > 100 µM | TGI (U251 CNS): > 100 µM | TGI (UACC-257 melanoma): 62.1 µM | TGI (UACC-62 melanoma): 28.9 µM | TGI (UO-31 renal): > 100 µM
